In ChEMBL document CHEMBL1201862, “PubChem BioAssay data set” (2004):
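Five concentrations, 48 hours, 96-well plates. GI50 marks 50% less growth.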 Active and inactive are the calls of the source. Cut-off read from the data, not from the text of the source: active = GI50 up to about 1.1 µM and inactive = higher.

What was measured:
Experiment in all cases: growth of human tumour cells (NCI), 48 h
M19-MEL = test system: M19-MEL
MCF7 = test system: MCF7
MDA-N = test system: MDA-N
BT-549 = test system: BT-549
Hs-578T = test system: Hs-578T
MDA-MB-435 = test system: MDA-MB-435
LXFL 529 = test system: LXFL 529

Measured: GI50

C=C1C(=O)OC2C=C(C)CC3C=C(CCC=C(C)CCC12)C(=O)O3 (configuration not stated)
inactive: M19-MEL 58.3 µM | MCF7 47.5 µM

CC(C)CNC1=NCC(C)S1 (configuration not stated)
inactive: MDA-N > 100 µM | MCF7 > 100 µM | BT-549 > 100 µM | Hs-578T > 100 µM | MDA-MB-435 > 100 µM

O=C1C(Cl)N(c2ccccc2Cl)C1c1c[nH]c2ccccc12 (configuration not stated)
inactive: M19-MEL > 100 µM

CNC(=O)N(C)COC
inactive: M19-MEL > 100 µM | LXFL 529 > 100 µM

Cc1cn(Cc2cn(CC3OC(n4cc(C)c(=O)[nH]c4=O)CC3O)nn2)c(=O)[nH]c1=O (configuration not stated)
inactive: MDA-N > 100 µM | MCF7 > 100 µM | BT-549 > 100 µM | Hs-578T > 100 µM | MDA-MB-435 > 100 µM

O=C(O)CN1CCN(CC(=O)O)CCN(CC(=O)O)CC1
inactive: MDA-N 3.7 µM | MCF7 5.65 µM | BT-549 > 100 µM | Hs-578T > 100 µM | MDA-MB-435 30.8 µM

O=c1c2cccnc2oc2c(Cl)cc(-c3nnn[nH]3)cc12
inactive: MDA-N > 100 µM | Hs-578T > 100 µM | MDA-MB-435 > 100 µM

CC1OC(CO)(n2cnc3c(N)ncnc32)C(O)C1O (configuration not stated)
inactive: M19-MEL > 100 µM | MCF7 > 100 µM

C=C(/C=C/C=C(\C)CCC=C(C)C)[C@@H]1CC[C@]2([C@H](CCCO)/C(=C(/C)C=O)CC[C@]2(C)O)[C@@H]1O
inactive: M19-MEL > 10 µM | LXFL 529 19.1 µM
